Tests used:
H460 Cells = test: Cell proliferation (3H-thymidine incorporation); assay type: cell-based; conditions: Homo sapiens, NCI-H460
From the text: (§1) This procedure (Jelinkova, R. B. et al., “Antiproliferative effect of a lectin- and anti-Thy-1.2 antibody-targeted HPMA copolymer-bound doxorubicin on primary and metastatic human colorectal carcinoma and on human colorectal carcinoma transfected with the mouse Thy-1.2 gene”, Bioconjug. Chem. (2000, September-October), Vol. 11, No. 5, pp. 664-73) is used to assess the effect compounds have on various cell lines with respect to proliferation. The rate of anchorage-independent growth of various tumor cells is quantified by measuring the amount of free isotopic thymidine that has been incorporated into the cells over a period of time. The effect of any compound to inhibit the proliferation of various tumor cells could be used as an indication of its ability to prevent disease progression in cancer.
(§2) Cultured tumour cells are harvested cells as per normal procedures: i.e. trypsinize, centrifuge and count cells. A volume of 90 μL is used to seed 5,000 cells/well in a 96 well plate. Cells are incubated for 24 hours at 37° C. under 5% CO2. After incubation, cells should be 80-90% confluent.
(§3) ^3H-thymidine (Amersham) is diluted in cell culture media to a concentration of 100 μCi/mL. The test compound is diluted in the thymidine broth to 10× the final desired concentration.
(§4) Then 10 μL of diluted compound is added to the 90 μL of cells already present in the 96-well plates. Six replicates wells are done per treatment in columns 2 to 11. Plates were mixed by rocking.
(§5) A known cytotoxic compound such as staurosporine is used in relatively high concentrations as a positive control in column 1. Diluted DMSO is used as a negative control in column 12. The plate is incubated for exactly 24 hours at 37° C.
(§6) After incubation, plates are observed under the microscope for obvious cell death, abnormal cell shape, crystal formation of the compound, etc. Then 25 μL volume of cold 50% TCA is added slowly to the 100 μL volume already in each well, and incubated for 1-2 hours at 4° C. The plates are then washed 5× in tap water and allowed to dry completely (usually overnight) at ambient temperature. Finally, 100 μL of scintillation fluid is added to each well and the plates are counted in a Wallac 1450 Microbeta™ counter according to user manual instructions.
(§7) The amount of inhibition is determined by the following formula: % inhibition=100−[(AVG treatment−AVG positive control)/[…]]

PC3 Cells = test: Cell proliferation (3H-thymidine incorporation); assay type: cell-based; conditions: Homo sapiens, PC-3
From the text: as §1, §2, §3, §4, §5, §6, §7

PTPN2 = target: T1, PTPN2 (Homo sapiens, UniProt P17706); test: In vitro phosphatase assay (malachite green, phosphate release from ppC SRC 60 peptide); assay type: biochemical; conditions: read-out: Inhibition of PTPN2 IC50
T1 construct: made in house; host or cells: bacterial expression system (IMPACT, New England BioLabs)
T1 sequence (P17706 1-415): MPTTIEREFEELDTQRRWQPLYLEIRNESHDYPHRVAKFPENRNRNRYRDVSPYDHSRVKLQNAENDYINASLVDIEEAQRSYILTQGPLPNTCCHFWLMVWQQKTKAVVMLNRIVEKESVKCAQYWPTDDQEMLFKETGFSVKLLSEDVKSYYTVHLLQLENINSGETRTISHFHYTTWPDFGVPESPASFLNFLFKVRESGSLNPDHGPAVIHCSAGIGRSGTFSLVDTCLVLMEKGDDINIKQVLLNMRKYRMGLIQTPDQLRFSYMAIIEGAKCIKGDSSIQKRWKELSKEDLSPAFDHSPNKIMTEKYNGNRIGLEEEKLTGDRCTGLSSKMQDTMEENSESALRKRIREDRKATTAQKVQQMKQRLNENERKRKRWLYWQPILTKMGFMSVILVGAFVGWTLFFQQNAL
From the text: PTPN2 was cloned from a human placental cDNA library in the IMPACT™ (New England BioLabs) bacterial expression system. The technology was first described by Chong et al., Gene (1997), Vol. 192, pp. 271-281. The IMPACT™ Protein Purification System was purchased commercially from New England BioLabs. The resulting product was used in the development of a protein phosphatase assay for high-throughput screening (HTS) of target molecules and in other assays described herein (see Example 2).
This activity was considered to be in the high range as compared to other recombinant protein tyrosine phosphatases assayed. […]
(§8) The enzyme (phosphatase) activity was determined in a reaction that measured phosphate relase from tyrosine phospho-specific peptides using a method first described by Harder et al., Biochem. J. (1994), Vol. 298, pp. 395-401. […]
(§9) The assay plate was incubated at room temperature (21° C.) for 15 minutes. […] The plate was “read” on Bio-tek Instruments EL312e microplate Bio-Kinetics™ Reader at 590 nm and the data collected as per instrument manual.
(§10) The blank and negative controls were read, and blanks were subtracted from the average of negative control values and sample values, and the % inhibition was expressed by the following formula: % Inhibition=100−[corrected sample reading/corrected Negative Control reading*100].

PTPN12 = target: T2, PTPN12 (Homo sapiens, UniProt Q05209); test: as above; assay type: biochemical; conditions: read-out: Inhibition of PTPN12 IC50
T2 construct: The truncated version was used as it was far easier to handle and gave parallel results to the full length protein; made in house; host or cells: bacterial strain ER2566
T2 sequence (Q05209 28-293 limits assumed): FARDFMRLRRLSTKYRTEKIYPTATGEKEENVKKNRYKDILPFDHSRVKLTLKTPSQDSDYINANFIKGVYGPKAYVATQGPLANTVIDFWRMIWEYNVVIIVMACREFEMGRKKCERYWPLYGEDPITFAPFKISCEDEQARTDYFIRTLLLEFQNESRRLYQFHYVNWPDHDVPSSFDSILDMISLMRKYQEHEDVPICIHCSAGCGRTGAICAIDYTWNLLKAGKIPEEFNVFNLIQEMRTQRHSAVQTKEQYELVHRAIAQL
From the text: Expression of human truncated PTPN12 (PTP-PEST-N) as a fusion protein required that the cDNA be ligated into the polyclonal site situated in frame and upstream of the intein gene of the IMPACT™ expression vector pTWIN-II. The truncated version was used as it was far easier to handle and gave parallel results to the full length protein in comparison testing. For the purpose of simplicity, PTP-PEST-N will be used interchangeably with PTPN12 in these Examples.
Active PTPN12 enzyme is expressed from the IMPACT™ vector system in the bacterial strain ER2566. Recombinant PTPN12 protein is purified from bacterial cells using affinity chromatography on chitin-agarose beads followed by a chemical process whereby PTPN12 is released from its affinity tag. A complete quantitative and qualitative analysis of the protein is monitored using Coomassie-Blue staining of SDS-PAGE separated preparations and by PTPN12-specific western blotting. […]
as §8, §9

PTPN1 = target: T3, PTPN1 (Homo sapiens, UniProt P18031); test: as above; assay type: biochemical; conditions: read-out: Inhibition of PTPN1 IC50
T3 sequence (P18031 1-435): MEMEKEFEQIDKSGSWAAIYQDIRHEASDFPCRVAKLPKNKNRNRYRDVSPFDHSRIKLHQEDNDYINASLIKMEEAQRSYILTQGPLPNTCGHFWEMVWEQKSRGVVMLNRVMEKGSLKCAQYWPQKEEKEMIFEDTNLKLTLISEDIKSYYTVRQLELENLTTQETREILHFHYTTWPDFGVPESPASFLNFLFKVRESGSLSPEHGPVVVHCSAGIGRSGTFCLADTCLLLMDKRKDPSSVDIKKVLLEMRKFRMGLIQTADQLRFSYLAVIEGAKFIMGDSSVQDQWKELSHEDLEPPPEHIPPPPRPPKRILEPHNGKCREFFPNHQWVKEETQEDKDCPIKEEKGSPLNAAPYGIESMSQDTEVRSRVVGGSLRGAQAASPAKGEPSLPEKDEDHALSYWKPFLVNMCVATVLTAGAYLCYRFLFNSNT
Experimental: Compounds of formula (I) and formula (Ia) were tested in the following assay for their ability to inhibit the activity of the desired phosphatase.
The enzyme (phosphatase) activity was determined in a reaction that measured phosphate relase from tyrosine phospho-specific peptides using a method first described by Harder et al., Biochem. J. (1994), Vol. 298, pp. 395-401. This is a non-radioactive method for measuring free phosphate by the malachite green method first described by Van Veldhoven and Mannaerts, Anal Biochem. (1987), Vol. 161, pp. 45-48. 10× assay buffer (250 mM Tris:100 mM, β-mercaptoethanol, 50 mM EDTA; pH 7.2) was diluted to 5× concentration (conc.) with distilled H2O (dH2O). Then 71.4 μM of substrate working stock solution was prepared in dH2O. […]
as §9, §10

[1] = tested on: prostate cancer cell line PC3; test: Cell migration in a Boyden chamber; assay type: cell-based; conditions: cell line not given
From the text: A range of cell lines are used in this assay, particularly the prostate cancer cell line PC3 and PTPN12 mouse embryonic fibroblasts (MEFs). The role of PTPN12 in migration was established based on the observations of PTPN12 negative MEFs. Cell adhesion and migration are dynamic biological activities involving the assembly and disassembly of a large number of extracellular and intracellular molecules, for example, actin, which are regulated in turn by protein phosphorylation. […] Migration is reduced in PTPN12 knock-out MEFs. By extension, a PTPN12 inhibitor should reduce cell migration in a Boyden chamber. Therefore, as a readout for PTPN12 activity, the following assay is designed to analyze cell migration in Boyden chambers. […]
For tumour cell lines, stock cells (ie. PC3 cells) are grown to 50-70% confluency in T175 flasks. […] Fluorescence of migrated cells is read in a Fluoroskan Ascent FL™ (or equivalent) with bottom reading at excitation/emission wavelength of 485/538 nm. Only those cells that have migrated through the pores of the FluoroBlok™ membrane will be read. […]
Data is expressed as fluorescence unit (FU) from the sum of middle 25 areas per 24-well or as percentage of migration inhibition by following formula: % of invasion inhibition=100−FU of compound treated cell invasion/FU of DMSO treated cell invasion times 100. […]

SMILES | inhibition at 50 µM (H460 Cells) | inhibition at 50 µM (PC3 Cells) | IC50 (PTPN2) | IC50 (PTPN12) | IC50 (PTPN1) | inhibition at 25 µM [1]
Cc1ccc(C=C2SC(=S)N(CCC(=O)Nc3ccc(S(N)(=O)=O)cc3)C2=O)cc1 [3-[5-(4-methylbenzylidene)-4-oxo-2-thioxothiazolidin-3-yl]-N-(4-sulfamoylphenyl)-propionamide] | 45% | 35% | 1600 nM | 1500 nM | 3000 nM | 55%
Cc1ccc(C=C2SC(=S)N(CCC(=O)Nc3ccc(S(=O)(=O)Nc4nccs4)cc3)C2=O)cc1 [3-[5-(4-methylbenzylidene)-4-oxo-2-thioxothiazolidin-3-yl]-N-[4-(thiazol-2-ylsulfamoyl)-phenyl]-propionamide] | 43% | 47% | 950 nM | 1100 nM | 1500 nM | 87%

From US7393869B2, “Methods of using thiazolidine derivatives to treat cancer or inflammation” (QLT Inc., priority 2002, dated 2008)
